Target: T1, Recombinant human cathepsin A (Homo sapiens, UniProt P10619)
T1 construct: Recombinant human cathepsin A (residues 29-480, with a C-terminal 10-His tag); 10-His (C); purchased R & D Systems 1049-SE
T1 sequence (P10619 29-326 limits assumed): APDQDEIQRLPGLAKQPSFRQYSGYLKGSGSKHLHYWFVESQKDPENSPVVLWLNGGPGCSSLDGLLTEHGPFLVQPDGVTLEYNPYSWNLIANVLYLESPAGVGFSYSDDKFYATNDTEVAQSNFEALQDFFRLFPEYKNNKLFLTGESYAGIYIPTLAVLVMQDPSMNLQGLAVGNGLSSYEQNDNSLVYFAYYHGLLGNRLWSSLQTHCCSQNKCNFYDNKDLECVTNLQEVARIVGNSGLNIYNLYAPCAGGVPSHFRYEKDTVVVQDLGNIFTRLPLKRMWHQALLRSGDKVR
T1 sequence (P10619 327-480 limits assumed): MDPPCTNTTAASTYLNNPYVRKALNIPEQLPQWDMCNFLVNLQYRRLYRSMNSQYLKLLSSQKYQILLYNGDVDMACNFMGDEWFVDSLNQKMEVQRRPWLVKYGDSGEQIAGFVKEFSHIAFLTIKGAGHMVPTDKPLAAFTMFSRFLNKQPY
Experiment: Cathepsin A inhibitory activity
Format: biochemical
Details: Bodipy FL-labeled bradykinin substrate 2 μM, pH 5.5, microfluidic capillary electrophoresis
Procedure: Recombinant human cathepsin A (residues 29-480, with a C-terminal 10-His tag; R & D Systems, # 1049-SE) was proteolytically activated with recombinant human cathepsin L (R & D Systems, # 952-CY). Briefly, cathepsin A was incubated at 10 μg/ml with cathepsin L at 1 μg/ml in activation buffer (25 mM 2-(morpholin-4-yl)-ethanesulfonic acid (MES), pH 6.0, containing 5 mM dithiothreitol (DTT)) for 15 min at 37° C. Cathepsin L activity was then stopped by the addition of the cysteine protease inhibitor E-64 (N-(trans-epoxysuccinyl)-L-leucine-4-guanidinobutylamide; Sigma-Aldrich, # E3132; dissolved in activation buffer/DMSO) to a final concentration of 10 μM.
The activated cathepsin A was diluted in assay buffer (25 mM MES, pH 5.5, containing 5 mM DTT) and mixed with the test compound (dissolved in assay buffer containing (v/v) 3% DMSO) or, in the control experiments, with the vehicle in a multiple assay plate. […]
Uncleaved substrate and product were then separated by a microfluidic capillary electrophoresis on a LabChip® 3000 Drug Discovery System (12-Sipper-Chip; Caliper Life Sciences) and quantified by determination of the respective peak areas. Substrate turnover was calculated by dividing product peak area by the sum of substrate and product peak areas, and the enzyme activity and the inhibitory effect of the test compound thus quantified. […]

IC50: 1000 nM
Compound: CC(C)(C)NC(=O)N[C@H](C(=O)N1C[C@H]2[C@@H]([C@H]1C(=O)NC(CC1CCC1)C(=O)C(N)=O)C2(C)C)C(C)(C)C (stereo partly drawn) [Boceprevir, (1R,2S,5S)—N-[(2E)-4-amino-1-cyclobutyl-3,4-dioxobutan-2-yl]-3-{(2S)-2-[(tert-butylcarbamoyl)amino]-3,3-dimethylbutanoyl}-6,6-dimethyl-3-azabicyclo[3.1.0]hexane-2-carboxamide]

Source: patent publication US20130123325A1, “USE OF BOCEPREVIR AND RELATED COMPOUNDS IN ATHEROSCLEROSIS, HEART FAILURE, RENAL DISEASES, LIVER DISEASES OR INFLAMMATORY DISEASES” (priority 2011, published 2013)
